According to US7348421B1, “Methods for production of p-hydroxybenzoate in bacteria” (North Carolina State University, priority 2000, dated 2008):
Like-named read-outs stand apart in the source and are kept apart here.

Legend:
[1] = octanol-water; cited from earlier work
[2] = system: Pseudomonas putida DOT-T1E (wild-type); assay type: cell-based; settings: for tolerance to paraben / tolerance to amino acid: T1E; for tolerance to paraben: gradient up to 2, 1.54, 0.8, 0.3 g/L for methyl-, ethyl-, propyl-, butylparaben; for tolerance to amino acid: gradient 0 to 50 g/L; for concentration that the strain tolerated: Wild-type, aromatic carboxylic acid gradient, 20 h at 30° C.
P. putida PhoA5 = assay type: cell-based, Pseudomonas putida; settings: for tolerance to paraben: same gradients; for tolerance to amino acid: gradient 0 to 50 g/L; for concentration that the strain tolerated: aromatic carboxylic acid gradient, 20 h at 30° C.
T1E pPAT7 = assay type: cell-based, Pseudomonas putida; settings: for tolerance to paraben: same gradients; for tolerance to amino acid: gradient 0 to 50 g/L
PhoA5 pPAT7 = assay type: cell-based, Pseudomonas putida; settings: for tolerance to paraben / tolerance to amino acid: PhoA5 pPAT7; for tolerance to paraben: same gradients; for tolerance to amino acid: gradient 0 to 50 g/L; for tolerance to aromatic carboxylic acids: PhoA5(pPAT7), double diffusion plates
[3] = system: wild-type strain (DOT-T1E); settings: 3 μg/mL EDDHA, M9 with glucose
PhoA5 mutant = settings: 3 μg/mL EDDHA, M9 with glucose; overcome by adding Fe-citrate
adapted strain = settings: after 11 transfers; slow rate
DOT-T1E = assay type: cell-based, Pseudomonas putida; settings: wild-type, 0.3% (vol/vol) toluene
toluene-tolerant strain = experiment: Enrichment selection in flasks, toluene; assay type: cell-based; settings: slow rate of growth
Protocol: Using a similar procedure with toluene, a toluene-tolerant strain (with a slow rate of growth on 150 ppm of toluene) was obtained. Adding 10 mM MgSO4 increased the tolerance of the organism to toluene.

For `CCCCCCCCO` [1-octanol], the “log Pow” value [1] is given as 2.8.

Compound `CCCCOC(=O)c1ccc(O)cc1` [BP, butylparabene] has a tolerance to paraben [2] of over 0.3 g/L, a tolerance to paraben (P. putida PhoA5) of over 0.3 g/L and a tolerance to paraben (P. putida PhoA5; listed as butylparaben) of at least 0.3 g/L. For the same compound, the tolerance to paraben (T1E pPAT7) was over 0.3 g/L and the tolerance to paraben (PhoA5 pPAT7) was over 0.3 g/L.

For `O=C(O)C(NCCNC(C(=O)O)c1ccccc1O)c1ccccc1O` (centres unmarked) [EDDHA, ethylenediamine-di (o-hydroxyphenylacetic acid)], the “growth in the presence of iron chelator” value [3] was “grew under all culture conditions” and the “growth in the presence of iron chelator” value (PhoA5 mutant) was “severely inhibited”.

With `N[C@@H](Cc1c[nH]cn1)C(=O)O` [Histidine, L-histidine] the “tolerance to amino acid” value [2] was 31.2 g/L, the “tolerance to amino acid” value ([2]; listed as histidine) was about 31 g/L and the “tolerance to amino acid” value (P. putida PhoA5) was 22.3 g/L. For the same compound, the “tolerance to amino acid” value (P. putida PhoA5; listed as histidine) was “about 23 g/L”, the “tolerance to amino acid” value (T1E pPAT7) was 30.6 g/L and the “tolerance to amino acid” value (PhoA5 pPAT7) was 29.4 g/L.

In the case of `COC(=O)c1ccc(O)cc1` [MB, methylparabene], the tolerance to paraben [2] was over 2 g/L, the tolerance to paraben (P. putida PhoA5) was 1.0 g/L and the tolerance to paraben (P. putida PhoA5; listed as methylparaben) was “about 1 g/L”. For the same compound, the tolerance to paraben (T1E pPAT7) was over 2 g/L, the tolerance to paraben (PhoA5 pPAT7) was over 2.0 g/L and the tolerance to paraben (PhoA5 pPAT7; listed as methylparaben) was “as tolerant as the wild-type strain”.

For `CCCOC(=O)c1ccc(O)cc1` [PB, propylparabene], the tolerance to paraben [2] was over 0.8 g/L, the tolerance to paraben (P. putida PhoA5) was over 0.8 g/L and the tolerance to paraben (P. putida PhoA5; listed as propylparaben) was “at least 0.8 g/L”. For the same compound, the tolerance to paraben (T1E pPAT7) was over 0.8 g/L and the tolerance to paraben (PhoA5 pPAT7) was over 0.8 g/L.

For `N[C@@H](Cc1c[nH]c2ccccc12)C(=O)O` [Tryptophan, L-tryptophan], the “tolerance to amino acid” value [2] was 35.3 g/L, the “tolerance to amino acid” value ([2]; listed as tryptophan) was about 35 g/L and the “tolerance to amino acid” value (P. putida PhoA5) was 23.5 g/L. For the same compound, the “tolerance to amino acid” value (P. putida PhoA5; listed as tryptophan) was “about 23 g/L”, the “tolerance to amino acid” value (T1E pPAT7) was 38.8 g/L and the “tolerance to amino acid” value (PhoA5 pPAT7) was 22.9 g/L. For the same compound, the “tolerance to amino acid” value (PhoA5 pPAT7; listed as tryptophan) was “more sensitive than the wild-type”.

With `CC(=O)O` [acetate] the “acetate concentration at which the adapted strain was able to grow” value (adapted strain) was 200 mM.

For `C1CCCCC1` [cyclohexane], the “log Pow” value [1] is given as 3.2.

For `CCc1ccccc1` [ethylbenzene], the “log Pow” value [1] is given as 3.1.

In the case of `CCCCCCC` [heptane], the “log Pow” value [1] is listed as 4.5.

For `O=C(O)c1ccccc1Cl` [o-chlorobenzoate], the “concentration that the strain tolerated” value [2] was 14.5 g/L, the “concentration that the strain tolerated” value (P. putida PhoA5) was 6.0 g/L and the “tolerance to aromatic carboxylic acids” value (PhoA5 pPAT7) was “as tolerant as the wild-type”.

For `COc1ccccc1C(=O)O` [o-methoxybenzoate], the “concentration that the strain tolerated” value [2] was 17 g/L, the “concentration that the strain tolerated” value (P. putida PhoA5) was 8.5 g/L and the “tolerance to aromatic carboxylic acids” value (PhoA5 pPAT7) was “as tolerant as the wild-type”.

With `Nc1ccc(C(=O)O)cc1` [p-aminobenzoate] the “concentration that the strain tolerated” value [2] was 13.0 g/L, the “concentration that the strain tolerated” value (P. putida PhoA5) was 7.8 g/L and the “tolerance to aromatic carboxylic acids” value (PhoA5 pPAT7) was “as tolerant as the wild-type”.

For `Cc1ccc(C(=O)O)cc1` [p-methylbenzoate], the “concentration that the strain tolerated” value [2] was 14.5 g/L, the “concentration that the strain tolerated” value (P. putida PhoA5) was 7.4 g/L and the “tolerance to aromatic carboxylic acids” value (PhoA5 pPAT7) was “as tolerant as the wild-type”.

For `Cc1ccc(C)cc1` [p-xylene], the “log Pow” value [1] is given as 3.0.

For `CCCc1ccccc1` [propylbenzene], the “log Pow” value [1] is given as 3.6.

With `Cc1ccccc1` [toluene] the “survival of toluene shock” value (DOT-T1E; cells pre-exposed to toluene in the gas phase) was “tolerated the shock”, the “loss of viability after sudden exposure to toluene” value (DOT-T1E; non-pre-exposed cells) was 5 orders of magnitude and the “toluene concentration at which the strain grew” value (toluene-tolerant strain) was 150 ppm.

With p-methoxybenzoate the “concentration that the strain tolerated” value [2] was 19 g/L, the “concentration that the strain tolerated” value (P. putida PhoA5) was 9.1 g/L and the “tolerance to aromatic carboxylic acids” value (PhoA5 pPAT7) was “as tolerant as the wild-type”.
